Assay [1] relates to 12-Lipoxygenase in platelets. Briefly: 12-Lipoxygenase Inhibition Activity in Platelets (Extro Vivo). The arrangement: species or system SD rat. The settings on record: 1.0 mg/kg i.v., blood 10 min after administration; base preparation group = 100%. How it is done: Under anesthesia with pentobarbital, an SD rat (8 week-old, male) was intravenously administered with a polyethylene glycol solution containing 1.0 mg/kg of a test compound. Ten minutes after the administration, blood was collected from the abdominal vena cava, and the inhibitory activity was measured as in the above test (1).
Setting at 100% the amount of 12-HETE of the group in which a base preparation was administered instead of the drugs, the results, namely, the amount of 12-HETE obtained when each test drug was administered was indicated in terms of %.

Assay [2] addresses T1, 12-lipoxygenase (Rattus norvegicus, UniProt F1LQ70).
T1 construct: the frozen platelet rich plasma was allowed to melt and then subjected to ultrasonic treatment in ice water so that an enzyme solution was obtained; from tissue; host or cells: rat platelets (washed, frozen, sonicated; crude enzyme solution)
T1 sequence (F1LQ70 1-663): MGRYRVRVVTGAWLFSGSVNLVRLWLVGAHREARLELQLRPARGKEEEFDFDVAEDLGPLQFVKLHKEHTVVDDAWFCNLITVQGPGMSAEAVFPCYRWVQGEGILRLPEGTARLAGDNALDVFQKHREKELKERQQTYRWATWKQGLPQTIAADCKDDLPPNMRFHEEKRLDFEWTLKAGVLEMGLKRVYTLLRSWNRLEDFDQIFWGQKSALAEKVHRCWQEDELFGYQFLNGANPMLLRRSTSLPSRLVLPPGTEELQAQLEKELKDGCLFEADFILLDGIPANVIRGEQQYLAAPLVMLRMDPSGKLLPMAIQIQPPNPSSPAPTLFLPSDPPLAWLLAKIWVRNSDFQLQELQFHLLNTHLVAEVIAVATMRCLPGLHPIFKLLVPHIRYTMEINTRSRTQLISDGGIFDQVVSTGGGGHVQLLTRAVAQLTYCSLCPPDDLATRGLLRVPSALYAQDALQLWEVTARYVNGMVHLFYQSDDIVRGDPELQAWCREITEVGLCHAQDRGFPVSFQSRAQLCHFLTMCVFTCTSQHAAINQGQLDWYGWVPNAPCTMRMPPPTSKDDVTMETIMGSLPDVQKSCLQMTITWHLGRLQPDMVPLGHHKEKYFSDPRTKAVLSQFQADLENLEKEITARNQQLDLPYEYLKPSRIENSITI
The assay can be described thus: 12-Lipoxygenase Inhibition Activity (In Vitro), 12-HETE production by rat platelet enzyme solution. It counts as biochemical. The conditions noted are these: [14C]-arachidonic acid, 5 min pre-incubation at 37° C., 5 min reaction, read-out: Inhibition rate (%) of 12-HETE production; for inhibition at 1 µM: 10^-6 M; for inhibition at 0.1 µM: 10^-7 M. How it is done: The 12-lipoxygenase inhibition activity of each test compound according to the present invention was measured in the following manner.
Firstly, blood was collected from the heart of a rat (while using sodium citrate as an anticoagulant), and platelet rich plasma was prepared by a method known per se in the art. The platelet rich plasma was washed twice with a isotonic buffer (A) [134 mM of NaCl, 5 mM of D-glucose, 1 mM of EDTA, 1 mM of EGTA, 15 mM of tris-HCl (pH 7.4)] and was then frozen and stored at -80° C. Prior to a pharmacological test, the frozen platelet rich plasma was allowed to melt and then subjected to ultrasonic treatment in ice water so that an enzyme solution was obtained. To the isotonic buffer (A), 1 mM of GSH, the test compound (adjusted to have the final concentrations of 1 μM and 0.1 μM) and the enzyme solution (300-500 μg of protein) were added. Subsequent to pre-incubation at 37° C. for 5 minutes, [^14 C]-arachidonic acid (0.05 μCi) (final concentration: […]) was added to react it for 5 minutes. After the reaction was terminated, the reaction mixture was spread over a thin layer plate of silica gel to conduct autoradiography. 12-HETE was identified and a reduction in its production was determined as an index for its 12-lipoxygenase inhibition activity.

In assay [3] the test system is 12-lipoxygenase. The settings on record: conventionally known compound; cited from earlier work.

In the case of `CCOC(=O)Oc1ccc(C=C(C#N)C(=O)OCCc2ccccc2)cc1OC(=O)OCC` [Compound 1, phenethyl 2-cyano-3-(3,4-diethoxycarbonyloxyphenyl)-2-propenoate], the “inhibitory effect on amount of 12-HETE” value in assay [1] was determined as 30%. At 12-lipoxygenase [2], the inhibition (usually how much of the control response was suppressed) at 1 µM was 85.4% and the inhibition at 0.1 µM was determined as 52.9%. Consider `CCOC(=O)Oc1ccc(C=C(C#N)C(=O)OCC)cc1OC(=O)OCC` [Compound 6, ethyl 2-cyano-3-(3,4-diethoxycarbonyloxyphenyl)-2-propenoate], for which the inhibition at 0.1 µM at 12-lipoxygenase [2] was 60.3%. Consider `CCC[C@H](OC(=O)C(C#N)=Cc1ccc(OC(=O)OCC)c(OC(=O)OCC)c1)c1ccccc1` [Compound 7, (S)-(-)-1-phenylbutyl 2-cyano-3-(3,4-diethoxycarbonyloxyphenyl)-2-propenoate], for which, on 12-lipoxygenase [2], the inhibition at 1 µM came out at 75.6% and the inhibition at 0.1 µM is 40.8%.

As for `CCC[C@@H](OC(=O)C(C#N)=Cc1ccc(OC(=O)OCC)c(OC(=O)OCC)c1)c1ccccc1` [Compound 8, (R)-(+)-1-phenylbutyl 2-cyano-3-(3,4-diethoxycarbonyloxyphenyl)-2-propenoate], at 12-lipoxygenase [2], the inhibition at 1 µM came to 65.1% and the inhibition at 0.1 µM was 9.4%.

Turning to `CCOC(=O)Oc1ccc(C=C(C#N)C(=O)OC(C)Cc2ccccc2)cc1OC(=O)OCC` (centres unmarked) [Compound 9, 1-methyl-2-phenylethyl 2-cyano-3-(3,4-diethoxycarbonyloxyphenyl)-2-propenoate], at 12-lipoxygenase [2], the inhibition at 1 µM was determined as 71.8% and the inhibition at 0.1 µM stood at 4.2%. With `CCOC(=O)Oc1ccc(C=C(C#N)C(=O)OCCc2ccsc2)cc1OC(=O)OCC` [Compound 10, 2-(3-thienyl)-ethyl 2-cyano-3-(3,4-diethoxycarbonyloxyphenyl)-2-propenoate], at 12-lipoxygenase [2], the inhibition at 1 µM came out at 79.3% and the inhibition at 0.1 µM is 38.7%. On to `CCOC(=O)Oc1ccc(C=C(C#N)C(=O)OCc2ccco2)cc1OC(=O)OCC` [Compound 11, 2-furylmethyl 2-cyano-3-(3,4-diethoxycarbonyloxyphenyl)-2-propenoate], for which, at 12-lipoxygenase [2], the inhibition at 1 µM was 53.8% and the inhibition at 0.1 µM worked out at 23.5%. The matching figures for `CCOC(=O)Oc1ccc(C=C(C#N)C(=O)OCCCc2ccccn2)cc1OC(=O)OCC` [Compound 12, 3-(2-pyridyl)-propyl 2-cyano-3-(3,4-diethoxycarbonyloxyphenyl)-2-propenoate]: 68.4% and 16.3%. In the case of `CCOC(=O)Oc1ccc(C=C(C#N)C(=O)OCCCc2cccnc2)cc1OC(=O)OCC` [Compound 13, 3-(3-pyridyl)-propyl 2-cyano-3-(3,4-diethoxycarbonyloxyphenyl)-2-propenoate], at 12-lipoxygenase [2], the inhibition at 1 µM was found to be 40.8% and the inhibition at 0.1 µM was less than 0%. With `CCOC(=O)Oc1ccc(C=C(C#N)C(=O)OCc2ccsc2)cc1OC(=O)OCC` [Compound 14, 3-thienylmethyl 2-cyano-3-(3,4-diethoxycarbonyloxyphenyl)-2-propenoate], on 12-lipoxygenase [2], the inhibition at 1 µM amounted to 64.6% and the inhibition at 0.1 µM was determined as 34.6%. As for `CCOC(=O)Oc1cc(C=C(C#N)C(=O)OCCc2ccccc2)ccc1O` [Compound 17, phenethyl 2-cyano-3-(3-ethoxycarbonyloxy-4-hydroxyphenyl)-2-propenoate], the “inhibitory effect on amount of 12-HETE” value in assay [1] is 18%. On 12-lipoxygenase [2], the inhibition at 1 µM was found to be 75.9% and the inhibition at 0.1 µM worked out at 59.3%.

`CCOC(=O)Oc1ccc(C=C(C#N)C(=O)OCCc2cccs2)cc1OC(=O)OCC` [Compound 18, 2-(2-thienyl)-ethyl 2-cyano-3-(3,4-diethoxycarbonyloxyphenyl)-2-propenoate]: the inhibition at 0.1 µM on 12-lipoxygenase [2] worked out at 65.8%. For the compound `COC(=O)Oc1ccc(C=C(C#N)C(=O)OCCc2cccs2)cc1OC(=O)OC` [Compound 19, 2-(2-thienyl)-ethyl 2-cyano-3-(3,4-dimethoxycarbonyloxyphenyl)-2-propenoate], on 12-lipoxygenase [2], the inhibition at 1 µM came to 50.8% and the inhibition at 0.1 µM came out at 4.6%.

Consider `CC(C)COC(=O)Oc1ccc(C=C(C#N)C(=O)OCCc2cccs2)cc1OC(=O)OCC(C)C` [Compound 20, 2-(2-thienyl)-ethyl 2-cyano-3-(3,4-diisobutoxycarbonyloxyphenyl)-2-propenoate], for which, on 12-lipoxygenase [2], the inhibition at 1 µM is 63.4% and the inhibition at 0.1 µM was found to be 41.2%.

As to `N#CC(=Cc1ccc(OC(=O)OCc2ccccc2)c(OC(=O)OCc2ccccc2)c1)C(=O)OCCc1cccs1` [Compound 21, 2-(2-thienyl)-ethyl 2-cyano-3-(3,4-dibenzyloxycarbonyloxyphenyl)-2-propenoate], on 12-lipoxygenase [2], the inhibition at 1 µM was 41.6% and the inhibition at 0.1 µM was less than 0%.

In the case of `CCCCCCCOC(=O)Oc1ccc(C=C(C#N)C(=O)OCCc2cccs2)cc1OC(=O)OCCCCCCC` [Compound 22, 2-(2-thienyl)-ethyl 2-cyano-3-(3,4-diheptoxycarbonyloxyphenyl)-2-propenoate], at 12-lipoxygenase [2], the inhibition at 1 µM was found to be 27.6% and the inhibition at 0.1 µM was 14%. On to `CCOC(=O)Oc1cc(C=C(C#N)C(=O)OCCc2cccs2)ccc1O` [Compound 23, 2-(2-thienyl)-ethyl 2-cyano-3-(3-ethoxycarbonyloxy-4-hydroxyphenyl)-2-propenoate], for which, on 12-lipoxygenase [2], the inhibition at 1 µM is 84.5% and the inhibition at 0.1 µM was 64.5%. In the case of `CCOC(=O)Oc1cc(C=C(C#N)C(=O)OCCc2cccs2)cc(OC(=O)OCC)c1OC(=O)OCC` [Compound 29, 2-(2-thienyl)-ethyl 2-cyano-3-(3,4,5-triethoxycarbonyloxyphenyl)-2-propenoate], on 12-lipoxygenase [2], the inhibition at 1 µM was determined as 59.2% and the inhibition at 0.1 µM was 25.1%. Take `N#CC(=Cc1ccc2oc(=O)oc2c1)C(=O)OCCc1cccs1` [Compound 34, 2-(2-thienyl)-ethyl 2-cyano-3-(3,4-cyclic dioxolonylphenyl)-2-propenoate]: on 12-lipoxygenase [2], the inhibition at 0.1 µM amounted to 91.5%. As for `N#CC(=Cc1ccc2oc(=O)oc2c1)C(=O)OCCc1ccccc1` [Compound 35, phenethyl 2-cyano-3-(3,4-cyclic dioxolonylphenyl)-2-propenoate], on 12-lipoxygenase [2], the inhibition at 1 µM turned out to be 82.9% and the inhibition at 0.1 µM was 56.6%. With `N#CC(=Cc1ccc2oc(=O)oc2c1)C(=O)Oc1ccccc1` [Compound 36, phenyl 2-cyano-3-(3,4-cyclic dioxolonylphenyl)-2-propenoate], the inhibition at 0.1 µM at 12-lipoxygenase [2] is 75.6%. As to `O=c1cc(-c2ccccc2)oc2cc(O)c(O)c(O)c12` [baicalein], the 12-lipoxygenase inhibitory action in the assay on 12-lipoxygenase [3] was 12-lipoxygenase inhibitory action.
